Experiments:
[1] = target: T1, Nicotinamide N-methyltransferase (Homo sapiens) (UniProt P40261); assay: Inhibition of recombinant human NNMT expressed in Escherichia coli BL21 (DE3) assessed as Kobs/[I] ratio and measured after 20 mins using nicotinamide as substrate and SAM as cofactor by MTase-Glo reagent based assay
T1 sequence (whole entry): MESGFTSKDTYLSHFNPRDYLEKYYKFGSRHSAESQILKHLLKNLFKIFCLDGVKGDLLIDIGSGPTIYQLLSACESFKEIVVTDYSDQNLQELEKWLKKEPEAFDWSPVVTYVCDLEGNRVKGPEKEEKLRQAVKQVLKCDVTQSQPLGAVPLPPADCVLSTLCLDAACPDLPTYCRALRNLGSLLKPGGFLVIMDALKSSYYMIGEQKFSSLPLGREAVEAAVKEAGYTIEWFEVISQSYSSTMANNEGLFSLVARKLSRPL

[2] = target: T1, Nicotinamide N-methyltransferase (Homo sapiens); assay: Inhibition of NNMT (unknown origin) assessed as formation of MNA at 0.5 uM using nicotinamide as substrate and SAM as cofactor by fluorescence based assay
[3] = Inhibition of monkey NNMT preincubated for 30 mins followed by substrate, cofactor addition and measured after 60 mins using nicotinamide as substrate and SAM as cofactor by fluorescence enzymatic assay; parameters: species or system Macaca mulatta
[4] = target: T1, Nicotinamide N-methyltransferase (Homo sapiens); assay: Inhibition of human NNMT at 30 uM preincubated for 30 mins followed by substrate, cofactor addition and measured after 60 mins using nicotinamide as substrate and SAM as cofactor by fluorescence enzymatic assay; details: time 90.0 min
[5] = substrate: C[S+](CC[C@H](N)C(=O)[O-])C[C@H]1O[C@@H](n2cnc3c(N)ncnc32)[C@H](O)[C@@H]1O; assay: Binding affinity to recombinant human NNMT expressed in Escherichia coli BL21 (DE3) assessed as Km preincubated for 10 mins followed by SAM addition and measured after 10 mins by Michaelis-Menten analysis; details: time 20.0 min
[6] = substrate: NC(=O)c1cccnc1; assay: Binding affinity to recombinant human NNMT expressed in Escherichia coli BL21 (DE3) assessed as Km preincubated for 10 mins followed by NAM addition and measured after 10 mins by Michaelis-Menten analysis; details: time 20.0 min

Question: Which Ratio [1] does the source give for `NC(=O)c1cnccc1Cl` here?
Answer: The Ratio was 80 M⁻¹ min⁻¹.

Question: For `C=C(C)[C@@]12O[C@@]3(/C=C/C=C/CCCCC)O[C@@H]1[C@@H]1[C@@H]4O[C@]4(CO)[C@@H](O)[C@]4(O)C(=O)C(C)=C[C@H]4[C@@]1(O3)[C@H](C)[C@H]2OC(C)=O`, which inhibition [2] is on record?
Answer: The inhibition was 50%.

Question: For `COc1ccc(C(N)=O)cn1`, which IC50 [3] is on record?
Answer: The IC50 was 2.8 µM.

Question: Which Ratio [1] does the source give for `Clc1ccncc1` here?
Answer: The Ratio was 20 M⁻¹ min⁻¹.

Question: With `CNC(=O)c1ccc(OC)nc1` as the molecule, how does the inhibition [4] read?
Answer: Its inhibition is 20%.

B1: Nicotinamide N-methyltransferase (Homo sapiens), P40261 (protein)
chain: MESGFTSKDTYLSHFNPRDYLEKYYKFGSRHSAESQILKHLLKNLFKIFCLDGVKGDLLIDIGSGPTIYQLLSACESFKEIVVTDYSDQNLQELEKWLKKEPEAFDWSPVVTYVCDLEGNRVKGPEKEEKLRQAVKQVLKCDVTQSQPLGAVPLPPADCVLSTLCLDAACPDLPTYCRALRNLGSLLKPGGFLVIMDALKSSYYMIGEQKFSSLPLGREAVEAAVKEAGYTIEWFEVISQSYSSTMANNEGLFSLVARKLSRPL
Question: Which Km [5] does the source give for B1 here?
Answer: The Km was 8.5 µM.

Question: And the Km [6]?
Answer: The Km was 199 µM.
